Measurements from patent EP1311486B1, “USES OF THALIPORPHINE OR ITS DERIVATIVES IN TREATMENT OF CARDIAC DISEASES AND PREPARATION OF SAME” (Lotus Pharmaceutical Co., Ltd., priority 2000, dated 2002).
Marks after values point to notes of the source that are not given here.

How the values were obtained:
inward calcium current = conditions: Su MJ, et al., Eur. J. Pharmacol., 1994; cited from earlier work
atria or ventricles = test: Action potential duration in atria or ventricles; conditions: 3-10µM, data not shown
Procedure: Moreover, 3-10µM THP prolongs the action potential duration in the atria or ventricles of both rats and guinea pigs (data not shown).

plasma NO = test: Plasma NO release (NO/ozone chemiluminescence) after ischemia or ischemia-reperfusion; type: in vivo, rats; conditions: for NO (µmol/L) release, Ischemic / NO (µmol/L) release, Reperfused: Operated
Procedure: (§1) Myocardial ischemia was performed by a temporary tightening of the silk ligature around the left main coronary artery. Reperfusion was achieved by releasing the tension applied to the ligature (operated groups). Sham operated animals underwent all surgical procedures, apart from the fact that the silk, passing around the left coronary artery, was not tied (sham groups). Animals were infused with a bolus of THP (3.5x10^-7, 3.5x10^-6, 3.5x10^-5 g/kg), L-NAME (N^∞-nitro-L-arginine methyl ester; 1x10^-3 g/kg) or vehicle (dimethyl sulfoxide/ NaCl 0.9%, 1:10^3; v/v) from a jugular vein 15 minutes before coronary occlusion. The coronary artery was occluded for 30 minutes or 5 minutes followed by 30 minutes reperfusion and with the animals then divided randomly in the following groups: (1) sham + vehicle; (2) sham + THP (3.5x10^-5g/kg); (3) operated + vehicle; (4) operated + THP (3.5x10^-7 g/kg); (5) operated + THP (3.5x10^-6 g/kg); (6) operated + THP (3.5x10^-5 g/kg); (7) operated + L-NAME (1x10^-3 g/kg) + THP (3.5x10^-5 g/kg). Before and during the ischemia or reperfusion period, heart rate (HR), blood pressure (BP) and ECG changes were recorded. Ventricular ectopic activity was evaluated according to the diagnostic criteria advocated in the Lambeth Convention. The incidence and duration of ventricular tachyarrhythmias, including ventricular tachycardia (VT) and ventricular fibrillation (VF), in surviving animals was determined. The Mann-Whitney rank-sum test was used to analyze the differences in the duration of VT and VF between vehicle and drug treated groups. The BP and HR changes between vehicle and drug treated rats in the arrhythmia study were analyzed by ANOVA (analysis of variance) followed by Bonferroni's test. The difference in the percentage incidence of VT, VF and mortality rate was analyzed with a Chi-square test. Table 2 Effect of THP on ischemia-induced arrhythmias in the in vivo anesthetized rat
Cellular damage was evaluated by measuring the plasma LDH. Arterial blood samples were drawn from the carotid catheter at the end of ischemia or ischemia-reperfusion, collected in heparinized tubes. The blood was kept at 4°C until it was centrifuged at 2000 xg for 15 minutes. The plasma was recovered and aliquots were used for determination of LDH activity with a commercial kit from Sigma. The deproteinized plasma samples were frozen and kept until analysis. NO was measured by the NO/ozone chemiluminescence technique described in Yanu F. et al., (1997) Clin. Chem. 43:657-662. The difference in plasma NO and LDH were analyzed statistically using unpaired Student's t-test. Table 5 Effects of THP on LDH (U/L) release
Nitric oxide (NO) release is measured by the presence of nitrite (NO2^-) and nitrate (NO3^-) in the plasma from an animal with 30 minutes ischemia or 5 minutes followed by 30 minutes reperfusion. In sham animals, NO is measured to be 9.6±2.3 and 7.6±0.9µmol/L without and with THP pretreatment, respectively. In the operated animals, THP exerts a dramatically increase of plasma NO; at a dose of 3.5x10^-6 g/kg, there are 2- and 3.5-fold increases compared to that of the untreated (vehicle) ischemic or ischemic-reperfused animals, respectively (Table 6).

in vivo anesthetized rat = test: Ischemia-induced arrhythmias in the anesthetized rat (30 minutes coronary occlusion)
Procedure: as §1
In ischemic condition, severe ventricular arrhythmias in the vehicle group begins after 6-7 minutes of coronary artery occlusion, peaks after 8-12 minutes, and normally subsides after approximately 15 minutes from initiation. The duration of VF is calculated to be 32.1±8.9 seconds, and the duration of VT is 36.8±8.8 seconds. […] Administration of THP at 3.5x10^-5 g/kg results in a decrease of the incidence of VT and VF to 10% and 0%, respectively (p<0.05). […] A particular important finding is the very effective reduction of mortality even at very low dose of THP 3.5x 10^-7 g/kg.

[1] = system: Human low density lipoprotein (LDL); test: Copper-induced lipid peroxidation of LDL (TBARS formation); type: biochemical; conditions: LDL 100µg/ml, 37°C, CuSO4 12 hours
Procedure: Human low density lipoprotein (LDL, 100µg/ml) was preincubated with DMSO (0.1%, basal and control) or various concentrations of THP at 37°C for 10 minutes, and then CuSO4 was added, except for basal, and incubated for another 12 hours to determine the impact of THP on lipid peroxidation.
The impact of THP on lipid peroxidation is further assessed by evaluating its effect on the formation of TBARS (thiobarbituric acid-reactive substance) from LDL. Exposure of LDL to CuSO4 within 12 hours results in the peroxidation of LDL, as indicated by the increased content of TBARS (FIG. 3).

[2] = system: guinea pig right ventricular strips; test: Ouabain-induced arrhythmia in electrically driven right ventricular strips; conditions: 10-20µM after 0.6-0.8µM ouabain
Procedure: The arrhythmia was then induced 5-10 minutes after. 10-20µM THP or its derivatives were administered to reverse the ouabain-induced arrhythmia. 6-7.
Referring to FIGs. […] The arrhythmia is then induced 5-10 minutes after.

## COc1cc2c(cc1OC)-c1c(O)c(OC)cc3c1C(C2)N(C)CC3 (single isomer, unassigned; (+)) [THP, (+)-Thaliporphine]
Inward calcium current
  inward calcium current: enhance
Atria or ventricles; atria or ventricles of guinea pigs
  action potential duration: prolongs
Atria or ventricles; atria or ventricles of rats
  action potential duration: prolongs
Plasma NO; 3.5x10^-6 g/kg, ischemic
  increase of plasma NO compared to untreated (vehicle) ischemic animals: 2 fold
Plasma NO; 3.5x10^-6 g/kg, ischemic-reperfused
  increase of plasma NO compared to untreated (vehicle) ischemic-reperfused animals: 3.5 fold
Plasma NO; THP 3.5x10^-5 g/kg
  NO (µmol/L) release, Ischemic: 19.1 ± 5.5 µmol/L
  NO (µmol/L) release, Reperfused: 30.4 ± 1.9 µmol/L
Plasma NO; THP 3.5x10^-6 g/kg
  NO (µmol/L) release, Ischemic: 19.4 ± 4.7 µmol/L
  NO (µmol/L) release, Reperfused: 28.4 ± 4.3 µmol/L
Plasma NO; THP 3.5x10^-7 g/kg
  NO (µmol/L) release, Ischemic: 6.6 ± 0.6 µmol/L
  NO (µmol/L) release, Reperfused: 8.0 ± 1.7 µmol/L
Plasma NO; Sham-operated, THP 3.5x10^-5 g/kg
  NO (µmol/L) release, Non-ischemic: 7.6 ± 0.9 µmol/L
In vivo anesthetized rat; THP 3.5x10^-5 g/kg i.v.
  Mortality (%): 0%
  VF Duration: 0.0 ± 0.0 s
  VF Incidence(%): 0%
  VT Duration: 0.3 ± 0.3 s
  VT Incidence(%): 10%
In vivo anesthetized rat; THP 3.5x10^-6 g/kg i.v.
  Mortality (%): 0%
  VF Duration: 0.5 ± 0.5 s
  VF Incidence(%): 10%
  VT Duration: 5.7 ± 3.3 s
  VT Incidence(%): 50* %
In vivo anesthetized rat; THP 3.5x10^-7 g/kg i.v.
  Mortality (%): 0%
  VF Duration: 6.7 ± 4.9 s
  VF Incidence(%): 20%
  VT Duration: 16.1 ± 7.4 s
  VT Incidence(%): 60%
[1]
  IC50: 15.7 µM
[2]
  reversal of ouabain-induced arrhythmia: effective in reversing the arrhythmia
